Test results reported in the CheMixHub ionic liquid set.
“And” between values parts separate entries of the source, which are not always exact repeats. Identical values can stand only once.

Experiment: xn = mol fraction of the nth substance listed

CO + COP(=O)([O-])OC.Cn1cc[n+](C)c1
101 kPa, x1 = 1
Conditions | viscosity [mPa·s]
303.15 K | 0.521
318.15 K | 0.44

CO + CS(=O)(=O)[O-].C[N+](C)(CCO)CCO
101 kPa, x2 = 0
Conditions | viscosity [mPa·s]
298.15 K | 0.576
303.15 K | 0.539
308.15 K | 0.506
313.15 K | 0.477
318.15 K | 0.453
323.15 K | 0.43

CC[n+]1ccn(C)c1.F[B-](F)(F)F + CS(C)=O
Conditions | electrical conductivity | viscosity [mPa·s]
293.15 K, 100 kPa, x2 = 0.4781 | – | 19.1
298.1 K, 100 kPa, x1 = 0.021 | 0.55 S/m and 0.79 S/m | –
298.1 K, 100 kPa, x1 = 0.218 | 1.77 S/m | –
298.1 K, 100 kPa, x1 = 0.381 | 1.56 S/m | –
298.1 K, 100 kPa, x1 = 0.623 | 1.37 S/m | –
298.15 K, 100 kPa, x2 = 0.4098 | – | 19.1
303.15 K, 100 kPa, x2 = 0.7866 | – | 4.91
303.15 K, 101 kPa, x2 = 0.2996 | – | 17.26
303.15 K, 101 kPa, x2 = 0.6002 | – | 8.52
303.15 K, 101 kPa, x2 = 0.7996 | – | 4.395
313.15 K, 100 kPa, x2 = 0 | – | 24.8
313.15 K, 100 kPa, x2 = 0.2931 | – | 15.4
313.15 K, 101 kPa, x2 = 0.2996 | – | 12.88
323.15 K, 101 kPa, x2 = 0.4 | – | 8.2
323.15 K, 101 kPa, x2 = 0.9002 | – | 1.996
333.15 K, 101 kPa, x2 = 0.9002 | – | 1.71
343.15 K, 100 kPa, x2 = 0 | – | 11.7
343.15 K, 100 kPa, x2 = 0.2931 | – | 7.6
343.15 K, 100 kPa, x2 = 0.8959 | – | 1.61
353.15 K, 100 kPa, x2 = 0.4781 | – | 4.48

COCCCC[n+]1ccn(C)c1.NCC(=O)[O-] + CS(C)=O
100 kPa
Conditions | viscosity [mPa·s]
288.15 K, x1 = 0.4986 | 49.18
293.15 K, x1 = 0.4986 | 37.24
293.15 K, x1 = 0.6006 | 51.07
293.15 K, x1 = 0.7941 | 84.3
298.15 K, x1 = 0.7941 | 65.57
298.15 K, x1 = 1 | 97.2
303.15 K, x1 = 0.1009 | 4.18
303.15 K, x1 = 0.299 | 10.12
308.15 K, x1 = 0.1009 | 3.59
308.15 K, x1 = 0.299 | 8.41
308.15 K, x1 = 0.701 | 34.9
318.15 K, x1 = 0.1009 | 2.72

CO + C[N+](C)(C)CCC[N+]1(C)CCCCC1.N#C[N-]C#N.N#C[N-]C#N
100 kPa, x2 = 0
Conditions | viscosity [mPa·s]
293.15 K | 0.584
323.15 K | 0.395

CO + C[N+](C)(C)CCO.NCC(=O)[O-]
100 kPa, x2 = 0
Conditions | viscosity [mPa·s]
298.15 K | 0.58
303.15 K | 0.55
308.15 K | 0.51
313.15 K | 0.47
318.15 K | 0.44
323.15 K | 0.41

OCCCCCCO + C[N+](C)(C)Cc1ccccc1.[Cl-]
101.13 kPa, x2 = 0.5
Conditions | electrical conductivity [S/m] | viscosity [mPa·s]
298 K | 0.084 | –
308 K | – | 73
